In patent US9028856B2, “Synergistic pesticide compositions” (priority 2008, dated 2015):

Tests used:
[1] = tested on: Aedes aegypti mosquito; assay: USDA Petri Dish Method, 3 min exposure to treated glazed tile; format: in vivo
Outline: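 USDA Petri Dish screen: groups of twenty female Aedes aegypti (4-6 days old) held 3 minutes on dried acetone-based treatments (with/without adjuvant), then transferred to untreated card. Replicated three or more times; knockdown followed over time, mortality recorded 24 hours post-exposure with sucrose-soaked cotton available.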

[2] = tested on: Red Imported Fire ant (RIFA), Solenopsis invicta; assay: Knockdown/mortality of ant workers under continuous exposure on treated glazed tile; format: in vivo
Description: Treatments were allowed to dry overnight. […] Treatments were replicated minimum three times.
Treatments were allowed to dry overnight. […] Treatments were replicated a minimum of three times.

[3] = tested on: housefly, Musca domestica; assay: Housefly continuous exposure on treated glazed tile (paper cup arena); format: in vivo
Description: Treatments were allowed to dry overnight. The housefly testing arena consisted of a 16 oz. paper cup where the bottom of the cup was removed and replaced with a piece of standard window screen. Ten adult houseflies (mixed ratio) were placed in each cup and covered with a 4″×5″ index card to prevent escape. Houseflies were continuously exposed to the treatment by inverting the testing arena and sliding the cup from the index card to the treated tile surface. Treatments were replicated a minimum of three times.

[4] = tested on: Musca domestica, resistant strain Reichswald; assay: Efficacy of formulations on surfaces (glazed/unglazed tiles), house flies, continuous exposure; format: in vivo; settings: for % KD and Mortality 15′ / % KD and Mortality 30′ / % KD and Mortality 1 h / % KD and Mortality 2 h / % KD and Mortality 3 h / % KD and Mortality 4 h / % KD and Mortality 6 h / % KD and Mortality 24 h: Table 115, EC formulation, continuous exposure
Protocol: All surfaces were provided with talcum-coated glass rings (diameter 9.5 cm, height 5.5 cm) one day later.
The test insects were anesthetized with CO2, 20 individuals were placed onto the treated surfaces and the glass ring was covered with wire gauze ring. […]
Each test consisted of at least one replicate and any additional replicates are noted.
Test Insects: House flies (Musca domestica) of both sexes, susceptible strain WHO(N) and resistant strain Reichswald
Evaluation: Mortality was evaluated cumulatively at different times. […]
Test Insects: Culex quinquefasciatus (adults) (3 minutes exposure time according to USDA Petri Dish Method), Musca domestica (adults), susceptible and resistant strain, Blattella germanica (males), Cimex lectularius (adults) (all: continuous exposure time)
Application: The EC formulation (diluted with water 1:9) were applied as 0.85 ml solutions onto glazed tiles (15 cm×15 cm)

[5] = octanol-water partition coefficient (Log K ow), Table 1; cited from earlier work
[6] = tested on: ants (persistent ant trails); assay: Ant control field trial (ant trail counts after barrier spray); format: in vivo
Description: The purpose of this example was to consider whether combinations of imidacloprid and adjuvant, believed acting as free radical stabilizers, is effective at controlling ant populations. The general methodology used in this analysis first involved locating a site with persistent ant trails; e.g., trails over surfaces of buildings, at structural guidelines (expansion joints, utility lines, and the like), or points where ants emerge from beneath or behind a structural element. A point of observation was fixed along the trail or point of emergence as the individual plot(s) for observations of the effects of treatment on ant activity. The near environment (structural substrate, mulch beds, ground, and the like) was sprayed to form a continuous barrier that intercepts the trailing ants in a barrier ca. 2 ft up and 2 ft out from foundation wall, and extending 2 to 3 feet on either side of the ant trail. After treatment, the observers returned to observe ant activity and count ant traffic at intervals after treatment. The evaluations were continued until the control failed, or as long as was practical. All formulations were diluted in water before treatment. Application rates, in terms of mg AI per sq. m., were as indicated in the tables. deltamethrin served as a positive control. All treatments were replicated in four plots.

[7] = Table 56, Aedes aegypti, glazed tile, 3 min exposure
[8] = Table 60, Red Imported Fire ant, glazed tile, continuous exposure
[9] = Table 48, fipronil/adjuvant in acetone, glazed tile, 3 min exposure
[10] = Table 52, fipronil/adjuvant in acetone, glazed tile
[11] = 0.1% = 50 mg Bendiocarb/m^2 on glazed tiles
[12] = 0.02% = 10 mg Ethiprole/m^2 on glazed tiles
[13] = 0.1% = 50 mg imidacloprid/m^2 on glazed tiles

CC[S+]([O-])c1c(C#N)nn(-c2c(Cl)cc(C(F)(F)F)cc2Cl)c1N (stereo not drawn) [Ethiprole (1%)]
Average % Knockdown & Mortality after 4 hr [1, 7]: 17% | Average % Knockdown & Mortality after 6 hr [1, 7]: 27% | Average % Knockdown & Mortality after 24 hr [1, 7]: 46% | Average % Knockdown & Mortality after 2 hr ([1]; Table 56, Aedes aegypti, glazed tile, 3 min exposure, adjuvant = Compound A 1% + Compound B 0.5%, 2 hr): 2% | Average % Mortality after 1 hr ([2]; Table 60, Red Imported Fire ant, glazed tile, continuous exposure, 1 hr): 0% | Average % Mortality after 1.5 hr ([2]; Table 60, Red Imported Fire ant, glazed tile, continuous exposure, 1.5 hr): 0% | Average % Mortality after 2 hr [2, 8]: 0% | Average % Mortality after 3 hr [2, 8]: 10% | Average % Mortality after 30 min ([2]; Table 60, Red Imported Fire ant, glazed tile, continuous exposure, adjuvant = Compound A 1% + Compound B 0.5%): 0% | Average % Knockdown & Mortality after 3 hr ([3]; Table 58, housefly, glazed tile, continuous exposure, 3 hr): 0% | Average % Knockdown & Mortality after 5 hr ([3]; Table 58, housefly, glazed tile, continuous exposure, 5 hr): 0% | Average % Knockdown & Mortality after 7 hr ([3]; Table 58, housefly, glazed tile, continuous exposure, 7 hr): 3% | Average % Knockdown & Mortality after 24 hr ([3]; Table 58, housefly, glazed tile, continuous exposure, 24 hr): 97% | Average % Knockdown & Mortality after 1 hr ([3]; Table 58, housefly, glazed tile, continuous exposure, adjuvant = Compound A 1% + Compound B 0.5%, 1 hr): 0%

N#Cc1nn(-c2c(Cl)cc(C(F)(F)F)cc2Cl)c(N)c1[S+]([O-])C(F)(F)F (stereo not drawn) [Fipronil (.001%)]
Average % Knockdown & Mortality after 15 min [1, 9]: 0% | Average % Knockdown & Mortality after 30 min [1, 9]: 0% | Average % Knockdown & Mortality after 60 min [1, 9]: 0% | Average % Knockdown & Mortality after 4 hr [1, 9]: 0% | Average % Knockdown & Mortality after 6 hr [1, 9]: 3% | Average % Knockdown & Mortality after 24 hr [1, 9]: 3% | Average % Mortality after 30 min [2, 10]: 0% | Average % Mortality after 60 min [2, 10]: 0% | Average % Mortality after 2 hr [2, 10]: 0% | Average % Mortality after 3 hr [2, 10]: 25% | Average % Mortality after 24 hr [2, 10]: 100%

N#Cc1nn(-c2c(Cl)cc(C(F)(F)F)cc2Cl)c(N)c1[S+]([O-])C(F)(F)F (stereo not drawn) [Fipronil (.01%)]
Average % Knockdown & Mortality after 15 min [1, 9]: 5% | Average % Knockdown & Mortality after 30 min [1, 9]: 6% | Average % Knockdown & Mortality after 60 min [1, 9]: 19% | Average % Knockdown & Mortality after 4 hr [1, 9]: 42% | Average % Knockdown & Mortality after 6 hr [1, 9]: 56% | Average % Knockdown & Mortality after 24 hr [1, 9]: 72% | Average % Mortality after 30 min [2, 10]: 0% | Average % Mortality after 60 min [2, 10]: 0% | Average % Mortality after 2 hr [2, 10]: 0% | Average % Mortality after 3 hr [2, 10]: 0% | Average % Mortality after 24 hr [2, 10]: 100%

CNC(=O)Oc1cccc2c1OC(C)(C)O2 [bendiocarb]
% KD and Mortality 15′ [4, 11]: 0% | % KD and Mortality 30′ [4, 11]: 0% | % KD and Mortality 1 h [4, 11]: 0% | % KD and Mortality 2 h [4, 11]: 0% | % KD and Mortality 3 h [4, 11]: 0% | % KD and Mortality 4 h [4, 11]: 0% | % KD and Mortality 6 h [4, 11]: 0% | % KD and Mortality 24 h [4, 11]: 5% | Log P [5]: 1.7

CC1(C)[C@H](C(=O)O[C@H](C#N)c2cccc(Oc3ccccc3)c2)[C@@H]1C=C(Br)Br [deltamethrin (1%)]
Average % Mortality after 10 min ([2]; 10 min, Table 31, aqueous deltamethrin/adjuvant, glazed tile): 37% | Average % Mortality after 20 min ([2]; 20 min, Table 31, aqueous deltamethrin/adjuvant, glazed tile): 100% | Average % Mortality after 40 min ([2]; 40 min, Table 31, aqueous deltamethrin/adjuvant, glazed tile): 100% | Average % Mortality after 60 min ([2]; Table 31, aqueous deltamethrin/adjuvant, glazed tile): 100%

CC1(C)[C@H](C(=O)O[C@H](C#N)c2cccc(Oc3ccccc3)c2)[C@@H]1C=C(Br)Br [deltamethrin]
% of the flies killed after 24 h ([4]; 0.02% deltamethrin in acetone on glazed tiles, with or without 1% Compound A + 0.5% Compound B): 7% | reduction in ant activity, cross-trial average (relative to pretreatment counts) [6]: 57.9%

CC[S+]([O-])c1c(C#N)nn(-c2c(Cl)cc(C(F)(F)F)cc2Cl)c1N (stereo not drawn) [ethiprole]
mortality rate (peak / increased over time), FIG. 50 ([1]; ethiprole 0.01% AI with or without adjuvant): 15-18% | % KD and Mortality 15′ [4, 12]: 0% | % KD and Mortality 30′ [4, 12]: 0% | % KD and Mortality 1 h [4, 12]: 0% | % KD and Mortality 2 h [4, 12]: 0% | % KD and Mortality 3 h [4, 12]: 0% | % KD and Mortality 4 h [4, 12]: 10% | % KD and Mortality 6 h [4, 12]: 15% | % KD and Mortality 24 h [4, 12]: 60% | Log P [5]: 2.90 | mortality in 3 hours ([2]; ethiprole 0.01% in the absence of the adjuvant (FIG. 54)): < 5% | mortality after about 6 hours ([3]; ethiprole 0.01% with or without adjuvant (FIG. 52)): about 6%

O=[N+]([O-])NC1=NCCN1Cc1ccc(Cl)nc1 [imidacloprid]
% KD and Mortality 15′ [4, 13]: 5% | % KD and Mortality 30′ [4, 13]: 5% | % KD and Mortality 1 h [4, 13]: 5% | % KD and Mortality 2 h [4, 13]: 5% | % KD and Mortality 3 h [4, 13]: 5% | % KD and Mortality 4 h [4, 13]: 5% | % KD and Mortality 6 h [4, 13]: 5% | % KD and Mortality 24 h [4, 13]: 20% | reduction in ant activity, cross-trial average (relative to pretreatment counts) [6]: 34.1%
